For 9 compounds, inhibition and IC50 results are on record in patent US7427625B2, “Substituted thiatriazaacenaphthylene-6-carbonitrile kinase inhibitors” (Janssen Pharmaceutica, N.V., priority 2006, dated 2008).

For assay [1], the target named is T1, Aurora-A (Mus musculus, UniProt P97477).
T1 construct: followed by the full length protein encoding the murine Aurora-A; polyhistidine (N); made in house; host or cells: sf9 insect cells
T1 sequence (P97477 1-395): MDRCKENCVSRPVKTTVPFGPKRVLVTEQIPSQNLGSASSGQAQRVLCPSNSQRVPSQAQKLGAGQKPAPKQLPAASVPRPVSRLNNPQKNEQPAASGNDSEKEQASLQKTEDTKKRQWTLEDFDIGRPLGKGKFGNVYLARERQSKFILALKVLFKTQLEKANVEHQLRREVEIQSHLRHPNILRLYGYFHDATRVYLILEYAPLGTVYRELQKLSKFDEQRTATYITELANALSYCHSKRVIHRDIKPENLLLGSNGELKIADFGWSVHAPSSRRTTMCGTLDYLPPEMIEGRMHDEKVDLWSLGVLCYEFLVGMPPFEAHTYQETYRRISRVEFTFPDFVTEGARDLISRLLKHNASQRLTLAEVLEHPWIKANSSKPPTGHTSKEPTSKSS
As to the kind of experiment: Aurora-A Screening Assay. The assay is classed as biochemical, murine. The settings on record: for inhibition at 1 µM: test concentration of 1 μM, read-out: Aurora-A percent inhibition. As for the experimental part:
(§1) A kinase reaction mixture was prepared containing 50 mM Tris-HCl at pH 8, 10 mM, MgCl20.1 mM […], 1 mM DTT, 10 μM ATP, 0.025 μM biotinylated histone-H1 peptide substrate and 0.2 μCuries per well ^33P-γ-ATP (2000-3000 Ci/mmol). 70 μL of the kinase reaction mixture was dispensed into the well of a Streptavidin FlashPlate.
(§2) Test compound stock in 100% DMSO (1 μL) was added to the wells resulting in a final concentration of 1% DMSO in the reaction with a 100 μL final reaction volume. Each enzyme was diluted in 50 mM Tris-HCl pH=8.0, 0.1% BSA and 30 μL was added to each well to initiate the reaction. The reaction was incubated for one hour at 30° C. At the end of the 1 hr incubation, the reaction was terminated by aspirating the mixture from the plate and washing the wells twice with PBS containing 100 mM EDTA. The biotinylated peptide substrate became immobilized on the Flashplate^198 and the incorporation of ^33P-γ-ATP was measured by reading the plate on a scintillation counter. Inhibition of the enzymatic activity was measured by observing a reduced amount of ^33P-γ-ATP incorporated into the immobilized peptide.
Aurora-A is a fusion protein containing a polyhistidine tag at the N terminus followed by the full length protein encoding the murine Aurora-A (Accession number GB BC014711) expressed and purified from sf9 insect cells. The assay used 400 ng of the N-terminal biotinylated peptide biotin-GRTGRRNSI-amide (Aurora-A) per well.
(§3) The IC50 was derived according to the procedure described in Example 2. For those compounds without an IC50, the percent inhibition results are shown at a test concentration of 1 μM.

Assay [2] deals with T2, VEGF-R2 (Rattus norvegicus, UniProt O08775).
T2 construct: polyhistidine (N)
Description: VEGF-R2 Screening Assay. The assay is classed as biochemical. As to conditions: for inhibition at 1 µM: test concentration of 1 μM, read-out: VEGF-R2 percent inhibition. As for the experimental part:
as §1, §2
The VEGF-R2 enzyme is a fusion protein containing a polyhistidine tag at the N terminus followed by amino acids 786 to 1343 of the rat VEGF-R2 kinase domain (Accession number U93306). The assay used 150 ng of the N-terminal biotinylated peptide biotin-KHKKLAEGSAYEEV-amide (VEGF-R2) per well.
as §3

Assay [3] concerns the target T3, EGFR (Homo sapiens, UniProt P00533).
T3 construct: The intracellular portion of EGFR started at nucleotide 2189 (corresponding to amino acid 667) and ended at the termination codon; made in house; host or cells: Sf9 insect cells (baculovirus)
As to the kind of experiment: EGFR Kinase Assay. Type of assay: biochemical. The settings on record: for inhibition at 2 µM: test concentration of 2 μM, read-out: EGFR percent inhibition. The text has this: The EGFR kinase used was a fusion of Glutathione-S-Transferase (GST) and a PCR amplified intracellular portion of EGFR (NM_005228). The intracellular portion of EGFR started at nucleotide 2189 (corresponding to amino acid 667) and ended at the termination codon. The portion was PCR amplified with primers that added the lambda attB sequences to each end, recombined into an entry vector, then into a GST destination vector (as described in Gateway Technologies Manual by Invitrogen Corporation, Carlsbad, Calif.).
The destination vector was recombined in the DH10BAC strain of bacteria to produce a bacmid. The bacmid was transfected into Sf 9 cells and the supernatant containing the baculovirus was collected. The GSTEGFR protein was purified using large cultures of Sf 9 cells infected with stock virus. After an appropriate period of time, the cells were collected and lysed. The GSTEGFR was then purified from the lysate on Glutathione-Sepharose columns (as described by Amersham Biosciences, Buckinghamshire, United Kingdom).
The EGFR substrate was prepared by biotinylating polyGluTyr (128 mg) (Sigma, St. Louis, Mo.) in a 1×PBS buffer incubated together with a 12-fold molar excess of Sulfo-NHS-LC-Biotin on ice for at least 2 hrs. The free biotin was separated from the biotinylated polyGluTyr on a gel filtration column.
A mixture of a 10× kinase buffer (500 mM Tris at pH 8.0, 100 mM Magnesium Chloride and 1 mM Sodium Vanadate), DTT (1 mM final from 500 mM stock), ATP (5 μM final from 10 mM stock), biotinylated polyGluTyr (10 μg/μL stock), γ-^33P ATP (10 μCi/μL stock) and water was added to each well (90 μL/well) of a Streptavidin Flashplate (Perkin Elmer, Wellesley, Mass.).
Test compound in 100% DMSO (2 μL) was added to the appropriate wells. Diluted GSTEGFR (1:300 dilution in 50 mM Tris at pH 8.0 and 0.1% bovine serum albumin) (10 μL) was added to the wells to initiate the reactions.
The plates were incubated at 30° C. for 1 hr with shaking. The reacted contents were removed and the plates were sequentially washed three times with a 1×PBS stop buffer (300 μL without Magnesium and Calcium) and 100 mM EDTA. After the final wash, the same stop buffer (200 μL) was added to the wells. The plates were then sealed and read on the TopCount scintillation counter.
Test compounds were assayed in triplicate at 16 concentrations at half-log dilutions starting at 200 uM. A maximum and minimum signal for the assay was determined on each plate. The percent inhibition of a test compound was calculated according to the formula
For a series of test concentrations, the IC50 was derived by graphing percent inhibition against the log of the concentrations tested for a given compound. For those compounds without an IC50, the percent inhibition results are shown at a test concentration of 2 μM.

Assay [4] deals with T4, HER-2 (Homo sapiens, UniProt P04626).
T4 construct: the nucleotides encoding amino acids 679 to 1255 of HER-2; purchased Proqinase (Freiburg, Germany)
Description: HER-2 Kinase Assay. The assay is classed as biochemical. As to conditions: for inhibition at 1 µM: test concentration of 1 μM, read-out: HER-2 percent inhibition. As to the method:
HER-2 kinase was purified at Proqinase (Freiburg, Germany) from a construct that consisted of a fusion of GST (Glutathione-S-Transferase), HIS6-Thrombin and the nucleotides encoding amino acids 679 to 1255 of HER-2.
A mixture of a 10× kinase reaction buffer (600 mM Hepes at pH 7.5, 30 mM Magnesium Chloride, 0.03 mM Sodium Vanadate and 500 μg/mL PEG 20,000), DTT (1.2 mM final from a 10 mM stock), ATP (1 μM from a 10 mM stock), biotinylated polyGluTyr (1.5 ng/μL final from stock of 1 μg/μL prepared by Upstate Biotechnologies, Lake Placid, N.Y.), Manganese Chloride (3 mM final from a 1 M stock), γ-^33P-ATP (10 μCi/μL stock) and water (70 μL/well) was added to each well of a Streptavidin Flashplate (Cat. #SMP103, NEN, Boston, Mass.).
Test compound stock (1 μL) was added to the appropriate wells. Diluted GSTHER2 kinase (6.7 ng/μL diluted into 50 mM Tris-HCl at pH 8.0 and 0.1% bovine serum albumin) (30 μL) was added (total volume of 200 ng/well) to initiate the reactions.
The reaction plates were incubated at 30° C. for 1 hr. The reaction was terminated by aspiring the reaction mixture from the plate wells and washing the wells three times with a 1×PBS stop buffer (300 μL) and 100 mM EDTA. After the final wash, the same stop buffer (200 μL) was again added to the wells. The plates were then sealed and read on the TopCount scintillation counter.
as §3

T2 sequence (O08775 786-1343): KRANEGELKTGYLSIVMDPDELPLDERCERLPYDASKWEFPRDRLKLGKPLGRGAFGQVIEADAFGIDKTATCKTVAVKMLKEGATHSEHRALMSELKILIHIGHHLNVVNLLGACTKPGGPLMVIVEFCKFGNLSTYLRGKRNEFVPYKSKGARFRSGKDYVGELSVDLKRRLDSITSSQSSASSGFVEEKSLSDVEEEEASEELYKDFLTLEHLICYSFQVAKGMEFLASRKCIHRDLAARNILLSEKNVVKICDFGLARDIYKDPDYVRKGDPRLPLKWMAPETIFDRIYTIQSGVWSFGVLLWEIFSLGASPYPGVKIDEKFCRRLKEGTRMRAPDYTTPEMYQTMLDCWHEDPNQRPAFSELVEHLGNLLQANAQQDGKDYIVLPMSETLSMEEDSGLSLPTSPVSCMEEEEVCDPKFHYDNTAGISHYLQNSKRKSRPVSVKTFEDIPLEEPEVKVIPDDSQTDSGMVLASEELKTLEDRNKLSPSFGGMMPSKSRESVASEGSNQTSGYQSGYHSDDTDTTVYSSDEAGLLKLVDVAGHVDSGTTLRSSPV
T3 sequence (P00533 669-1210 limits assumed): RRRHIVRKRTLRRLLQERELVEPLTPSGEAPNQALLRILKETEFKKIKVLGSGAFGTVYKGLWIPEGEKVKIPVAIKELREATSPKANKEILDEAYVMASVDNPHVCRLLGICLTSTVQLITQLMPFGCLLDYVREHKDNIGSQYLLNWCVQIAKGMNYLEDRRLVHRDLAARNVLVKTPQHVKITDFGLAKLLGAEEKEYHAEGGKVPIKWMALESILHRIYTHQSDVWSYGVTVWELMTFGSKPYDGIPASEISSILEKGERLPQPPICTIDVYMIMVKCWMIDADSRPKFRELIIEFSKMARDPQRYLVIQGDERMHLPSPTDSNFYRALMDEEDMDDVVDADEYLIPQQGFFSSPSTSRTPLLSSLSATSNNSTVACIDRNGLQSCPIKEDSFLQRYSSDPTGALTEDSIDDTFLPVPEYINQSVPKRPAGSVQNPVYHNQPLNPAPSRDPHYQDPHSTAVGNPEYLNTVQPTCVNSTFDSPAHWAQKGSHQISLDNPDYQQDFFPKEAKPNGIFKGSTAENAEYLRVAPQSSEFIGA
T4 sequence (P04626 679-1255): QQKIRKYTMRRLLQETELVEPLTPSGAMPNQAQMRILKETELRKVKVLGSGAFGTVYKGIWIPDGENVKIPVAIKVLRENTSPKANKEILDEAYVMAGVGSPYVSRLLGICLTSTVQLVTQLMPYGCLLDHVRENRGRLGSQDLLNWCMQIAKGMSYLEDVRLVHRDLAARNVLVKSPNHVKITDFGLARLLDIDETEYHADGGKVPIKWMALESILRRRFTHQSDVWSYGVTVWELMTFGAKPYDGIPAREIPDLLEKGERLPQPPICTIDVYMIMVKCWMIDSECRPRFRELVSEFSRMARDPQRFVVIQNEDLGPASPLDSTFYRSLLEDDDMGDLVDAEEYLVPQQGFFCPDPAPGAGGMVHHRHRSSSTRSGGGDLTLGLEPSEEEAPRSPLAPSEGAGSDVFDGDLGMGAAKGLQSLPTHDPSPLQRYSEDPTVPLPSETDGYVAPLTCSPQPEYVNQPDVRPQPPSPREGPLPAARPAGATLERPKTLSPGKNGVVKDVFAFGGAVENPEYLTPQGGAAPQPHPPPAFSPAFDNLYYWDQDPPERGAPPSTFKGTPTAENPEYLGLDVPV

As to `N#Cc1cnc2sc(C(=O)Nc3ccc(CN4CCC(CO)CC4)cc3)c3c2c1N(c1c(Cl)ccc2c1OCO2)C(=O)N3` [Cpd 22, 5-(5-chloro-benzo[1,3]dioxol-4-yl)-6-cyano-4-oxo-4,5-dihydro-3H-1-thia-3,5,8-triaza-acenaphthylene-2-carboxylic acid [4-(4-hydroxymethyl-piperidin-1-ylmethyl)-phenyl]-amide], the inhibition (as a rule, the share of the control response that was lost under treatment) at 1 µM in assay [1] amounted to 15%; in assay [4], 48%. For the same compound, the IC50 (as a rule, the midpoint of a concentration-inhibition curve) was over 100000 nM in assay [2] and 567 nM in assay [3].

Turning to `CCOC(=O)c1sc2nc(O)c(C#N)c3c2c1NC(=O)N3c1ccc(Oc2ccccc2)cc1` [Cpd 52, 6-cyano-7-hydroxy-4-oxo-5-(4-phenoxy-phenyl)-4,5-dihydro-3H-1-thia-3,5,8-triaza-acenaphthylene-2-carboxylic acid ethyl ester], the IC50 in assay [1] is over 100000 nM; in assay [2] it was over 100000 nM; in assay [3] it was 16.9 nM; in assay [4], over 10000 nM.

As for `CN1CCCCC1COc1ccc(NC(=O)c2sc3ncc(C#N)c4c3c2NC(=O)N4c2c(Cl)ccc3c2OCO3)cc1` (stereo not drawn) [Cpd 32, 5-(5-chloro-benzo[1,3]dioxol-4-yl)-6-cyano-4-oxo-4,5-dihydro-3H-1-thia-3,5,8-triaza-acenaphthylene-2-carboxylic acid [4-(1-methyl-piperidin-2-ylmethoxy)-phenyl]-amide], the values for the inhibition at 1 µM in assay [1], in assay [2] and in assay [4] were 13%, 1% and 22%, respectively. For the same compound, the inhibition at 2 µM in assay [3] is 35%.

On to `N#Cc1cnc2sc(C(=O)Nc3ccc(CN4CCC(N)CC4)cc3)c3c2c1N(c1c(Cl)ccc2c1OCO2)C(=O)N3` [Cpd 47, 5-(5-chloro-benzo[1,3]dioxol-4-yl)-6-cyano-4-oxo-4,5-dihydro-3H-1-thia-3,5,8-triaza-acenaphthylene-2-carboxylic acid [4-(4-amino-piperidin-1-ylmethyl)-phenyl]-amide], for which the IC50 is over 100000 nM in assay [1], over 100000 nM in assay [2], 514 nM in assay [3] and 1870 nM in assay [4].

With `Cc1cc(NC(=O)c2sc3ncc(C#N)c4c3c2NC(=O)N4c2c(Cl)ccc3c2OCO3)no1` [Cpd 34, 5-(5-chloro-benzo[1,3]dioxol-4-yl)-6-cyano-4-oxo-4,5-dihydro-3H-1-thia-3,5,8-triaza-acenaphthylene-2-carboxylic acid (5-methyl-isoxazol-3-yl)-amide], the inhibition at 1 µM in assay [1] came to 29%; in assay [2], 16%. For the same compound, the inhibition at 2 µM in assay [3] was found to be 30%. The IC50 in assay [4] is over 1000 nM.

For the compound `N#Cc1cnc2sc(C(=O)N3CCCC(CO)C3)c3c2c1N(c1c(Cl)ccc2c1OCO2)C(=O)N3` (stereo not drawn) [Cpd 21, 5-(5-chloro-benzo[1,3]dioxol-4-yl)-2-(3-hydroxymethyl-piperidine-1-carbonyl)-4-oxo-4,5-dihydro-3H-1-thia-3,5,8-triaza-acenaphthylene-6-carbonitrile], the inhibition at 1 µM in assay [1] came out at 3%; in assay [4], 13%. Moreover, the half-maximal inhibitory concentration (IC50) in assay [2] is over 100000 nM. In addition, the inhibition at 2 µM in assay [3] is 32%.

`N#Cc1cnc2sc(C(=O)Nc3ccc(NCCCN4CCOCC4)nc3)c3c2c1N(c1c(Cl)ccc2c1OCO2)C(=O)N3` [Cpd 30, 5-(5-chloro-benzo[1,3]dioxol-4-yl)-6-cyano-4-oxo-4,5-dihydro-3H-1-thia-3,5,8-triaza-acenaphthylene-2-carboxylic acid [6-(3-morpholin-4-yl-propylamino)-pyridin-3-yl]-amide]: the inhibition at 1 µM stood at 22% in assay [1], 12% in assay [2] and 35% in assay [4]. In assay [3], the inhibition at 2 µM came out at 11%.

As to `N#Cc1cnc2sc(C(=O)Nc3ccncc3)c3c2c1N(c1c(Cl)ccc2c1OCO2)C(=O)N3` [Cpd 40, 5-(5-chloro-benzo[1,3]dioxol-4-yl)-6-cyano-4-oxo-4,5-dihydro-3H-1-thia-3,5,8-triaza-acenaphthylene-2-carboxylic acid pyridin-4-ylamide], the inhibition at 1 µM in assay [1] turned out to be 15%; in assay [2], 9%; in assay [4], 0%. Further, in assay [3], the inhibition at 2 µM was 30%.

As to `CN(C)c1cc(NC(=O)c2sc3ncc(C#N)c4c3c2NC(=O)N4c2c(Cl)ccc3c2OCO3)ccc1CN1CCOCC1` [Cpd 27, 5-(5-chloro-benzo[1,3]dioxol-4-yl)-6-cyano-4-oxo-4,5-dihydro-3H-1-thia-3,5,8-triaza-acenaphthylene-2-carboxylic acid (3-dimethylamino-4-morpholin-4-ylmethyl-phenyl)-amide], the inhibition at 1 µM is 16% in assay [1], 7% in assay [2] and 0% in assay [4]. For the same compound, the inhibition at 2 µM in assay [3] was determined as 34%.
